Each block holds one compound with its values, some of them ahead of it.
Experiments:
[1] = log D7.4 determination by RP-HPLC, similar to the water/octanol partition coefficient method; type: physicochemical; conditions: pH 7.4, RP-HPLC C18, range −1 to +6
Description: log D7.4 values were determined by a method similar to the partition coefficient method in a water/octanol mixture and were carried out on an RP-HPLC from Waters Alliance (2795) having a C18 column (2×20 mm) with a gradient of morpholinesulfonic acid buffer (pH 7.4) and acetonitrile. The range was between −1 ([…]) to +6 (lipophilic).

HSA [2] = molecular target: T1, HSA (Homo sapiens, UniProt P02768); experiment: Fluorescence of NBD and dansyl dyes with increasing HSA (FRET effect, emission maxima); type: binding; conditions: for change in fluorescence intensity with increasing HSA concentration: HSA 1.56 to 200 μM, pH 7.4
T1 construct: purchased Sigma Aldrich A1887
Description: Absorption and fluorescence of fluorescence-labelled derivatives and HSA were carried out in a Varioskan™ microplate reader (Thermo Electron Corporation). 96 well (Costar, half area, flat bottom) microplates were used for absorption measurements and 384 well (Greiner Bio One, small volume, black) microplates from Greiner Bio One were used for fluorescence measurements. All measurements were carried out at pH 7.4 and room temperature.
5.00 ml of a 400 μM solution were prepared from the HSA stock solution. From this solution a geometric dilution series with 7 dilution steps, a dilution factor of 0.5 and a final volume of each concentration of 2.5 ml were prepared.
Defined concentrations of the fluorescence-labelled compounds were selected from the preceding experiment without HSA above and double-concentrated solutions thereof were prepared to take into account the later 1:1 dilution. For each fluorescence-labelled compound (12-17; 19-25) 1.00 ml of these double-concentrations was prepared. 50 μl of the dye solutions were introduced into a 96 well microplate and 50 μl each of the HSA dilution series were added. By mixing the solutions the concentrations of dye derivatives and the HSA solution were halved. The measurements of the absorption and fluorescence were carried out in analogy to the above experimental procedure without HSA.
In analogy to the absorption measurement the effect of HSA on the fluorescence of the dyes (12-17; 19-25) was determined. The same concentrations of NBD and dansyl dyes and the same concentration range for HSA as already described above were used.

HSA [3] = molecular target: T1, HSA; experiment: Displacement of NBD derivatives on HSA by natural fatty acids C6 to C16 (fluorescence); type: binding; parameters: key to displacement of NBD C8 (15) bound to HSA / displacement of NBD C10 (16) bound to HSA / displacement of NBD C12 (17) bound to HSA: + stands for displacement; − for no displacement; conditions: for relative binding affinity of the NBD dye for HSA: ranking among NBD C8, C10 and C12 from the competition experiments
Description: Dilution series for competition experiments with the fatty acids C6 to C16 were diluted with phosphate-buffered saline solution (DPBS buffer). Geometric dilution series of each fatty acid were prepared in 384 well microplates with a starting concentration of 2500 μM and a dilution factor of 0.33 and also 9 dilution steps. The final volume of each concentration was 80 μl. The plated-out fatty acids were stored in the deep freeze (−25° C.) until use.
For displacement experiments 2.50 ml of a 25 μM HSA solution were used per dye derivative. Due to the subsequent dilution steps the HSA concentration was doubled twice such that 2.50 ml of […] solution were prepared.
The dye concentrations were also doubled twice by the following dilution steps. 2.50 ml of each dye solution were needed. 2.10 ml of the respective dye solution were then mixed with 2.10 ml of the 100 μM HSA solution. The respective concentrations of the solutions halve here once. 50 μl of the mixture per well were introduced into a 96 well microplate.
The fatty acid microplates were brought to room temperature and 50 μl each of the dilution series were pipetted into the HSA-dye mixture. The concentrations of all solution constituents were thereby halved once again. In analogy to the experiments measuring the fluorescence of the fluorescence-labelled derivatives without HSA above, the solutions were pipetted from the 96 well microplate into a 384 well microplate. Absorption was not measured. The fluorescence measurement without a wavelength scan was carried out in analogy to the above-referenced experiment.
A concentration of 25 μM and a binding ratio of the NBD derivatives to HSA of 1:1 were employed for the displacement studies. For each dye derivative an NBD-HSA mixture with a concentration of 25 μM was prepared.

HSA [4] = molecular target: T1, HSA; experiment: Job plot of the fluorescence: stoichiometry of labelled fatty acids to HSA; type: binding; conditions: maximum in the curve or none
Description: The stoichiometry of NBD- and dansyl-labelled fatty acids bound to HSA was determined by Job plots, also called the “method of continuous variability” as different mole fractions of the respective binding partners are mixed with one another and then measured spectroscopically. Solutions of equimolar concentrations of HSA and dye were mixed such that the mole fractions of the substances were varied but the total molarity of the sample solution stayed constant. For short NBD derivatives C2 to C6 (12-14) no binding to HSA was confirmed, whereas binding ratios for long NBD derivatives C8 to C12 (15-17) to HSA were 1:1. For short dansyl derivatives C2 to C8 (19-22) binding ratios for HSA were 2:1, whereas the long dansyl derivatives C10 and C12 (23-24) bound to HSA in the ratio of 4:1. The finding that even dansyl C2 (19) was bound to HSA led to the question as to what extent the dansyl label itself is recognized by HSA. Because even dansyl methylamide (25) bound to HSA, even though it lacks a carboxyl group, it seems that the dye label could also bind to HSA.
For the Job plot the dye and HSA solutions were employed in equimolar amounts. 10.00 ml of 100 μM HSA solution and in each case 2.00 ml of a 100 μM dye solution (12-17; 19-25) were prepared from the above stock solutions. For the Job plot method the dye solutions were mixed with the HSA solution in different ratios as described below in Table 8. […] According to the same dilution scheme the dye solutions were also mixed with DPBS buffer for measuring the blank values of the fluorescence-labelled derivatives (see K. C. Ingham, Analytical Biochemistry 68 (1975) 660-663). […] Absorption was not measured. A fluorescence measurement without a wavelength scan was also carried out in analogy to the above experiment without HSA.
For NBD derivatives (12-17) and HSA 100 μM solutions were used. […] In total 11 solutions per dye derivative were prepared for fluorescence measurement by mixing the two binding partners. […] The fluorescence intensities were plotted against the mole fractions of the binding partners. […]

[5] = dansyl compound 100 μM, λex = 330 nm
[6] = NBD-HSA mixture 25 μM, 1:1, competitor natural fatty acid
[7] = NBD compound 25 μM, λex = 480 nm
[8] = NBD derivatives 25 μM, 480-550 nm

T1 sequence (P02768 25-609): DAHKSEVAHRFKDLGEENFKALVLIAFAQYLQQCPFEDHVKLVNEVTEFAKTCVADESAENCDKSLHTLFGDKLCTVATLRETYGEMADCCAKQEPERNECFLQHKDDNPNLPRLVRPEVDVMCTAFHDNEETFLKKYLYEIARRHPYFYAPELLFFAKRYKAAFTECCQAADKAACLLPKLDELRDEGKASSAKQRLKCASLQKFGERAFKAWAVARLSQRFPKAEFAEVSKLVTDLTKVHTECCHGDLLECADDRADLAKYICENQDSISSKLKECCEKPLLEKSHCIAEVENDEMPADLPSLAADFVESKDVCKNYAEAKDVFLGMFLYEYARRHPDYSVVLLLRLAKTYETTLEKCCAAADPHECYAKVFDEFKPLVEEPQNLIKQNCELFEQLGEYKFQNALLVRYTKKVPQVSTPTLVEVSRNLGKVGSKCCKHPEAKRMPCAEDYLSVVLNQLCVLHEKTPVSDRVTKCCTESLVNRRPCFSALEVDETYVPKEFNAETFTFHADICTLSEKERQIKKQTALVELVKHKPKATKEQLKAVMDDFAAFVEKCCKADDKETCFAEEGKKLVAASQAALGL

displacement of NBD C8 (15) bound to HSA (HSA [3]; [6]): + | displacement of NBD C8 (15) from HSA (HSA [3]; [6]): displaced | displacement of NBD C10 (16) bound to HSA (HSA [3]; [6]): unclear | displacement of NBD C12 (17) bound to HSA (HSA [3]; [6]): − | displacement of NBD C12 (17) from HSA (HSA [3]; [6]): no longer capable of displacing
Compound: CCCCCCCCCC(=O)O [FA C10, capric acid]

displacement of NBD C8 (15) bound to HSA (HSA [3]; [6]): + | displacement of NBD C8 (15) from HSA (HSA [3]; [6]): displaced | displacement of NBD C10 (16) bound to HSA (HSA [3]; [6]): + | displacement of NBD C12 (17) bound to HSA (HSA [3]; [6]): + | displacement of NBD C12 (17) from HSA (HSA [3]; [6]): displaced
Compound: CCCCCCCCCCCC(=O)O [FA C12, lauric acid]

displacement of NBD C8 (15) bound to HSA (HSA [3]; [6]): + | displacement of NBD C8 (15) from HSA (HSA [3]; [6]): displaced | displacement of NBD C10 (16) bound to HSA (HSA [3]; [6]): + | displacement of NBD C12 (17) bound to HSA (HSA [3]; [6]): +
Compound: CCCCCCCCCCCCCC(=O)O [FA C14, myristic acid]

The next lines start with the compound.

Compound: CN(C)c1cccc2c(S(=O)(=O)NCCCCCCCC(=O)O)cccc12 [dansyl C8 (22), 8-(5-Dimethylaminonaphthalene-1-sulfonylamino)octanoic acid]
chromatographic logD [1]: 2.1 | Δλ, shift of emission maximum λem without HSA vs with HSA (HSA [2]; [5]): 74 nm

Compound: O=C(O)CCCCCCCCCNc1ccc([N+](=O)[O-])c2nonc12 [NBD C10 (16), 10-(7-Nitrobenzo[1,2,5]oxadiazol-4-ylamino)decanoic acid]
relative binding affinity of the NBD dye for HSA (HSA [3]): minimally smaller | relative binding affinity of the NBD dye for HSA (HSA [3]; listed as NBD C10): binding strength which lies between these two | chromatographic logD [1]: 2.03 | Δλ, shift of emission maximum λem without HSA vs with HSA (HSA [2]; [7]): 16 nm | change in fluorescence intensity with increasing HSA concentration (HSA [2]; [8]): increase in fluorescence intensity

Compound: CN(C)c1cccc2c(S(=O)(=O)NCCCC(=O)O)cccc12 [dansyl C4 (20), 4-(5-Dimethylaminonaphthalene-1-sulfonylamino)butanoic acid]
chromatographic logD [1]: 1.21 | Δλ, shift of emission maximum λem without HSA vs with HSA (HSA [2]; [5]): 88 nm

Compound: O=C(O)CNc1ccc([N+](=O)[O-])c2nonc12 [NBD C2 (12), 2-(7-nitrobenzo[1,2,5]oxadiazol-4-ylamino)ethanoic acid]
log D7.4 [1]: < −1 | Δλ, shift of emission maximum λem without HSA vs with HSA (HSA [2]; [7]): 0 nm | change in fluorescence intensity with increasing HSA concentration (HSA [2]; [8]): no changes in fluorescence intensity

Compound: CNS(=O)(=O)c1cccc2c(N(C)C)cccc12 [DMA (25), 5-Dimethylaminonaphthalene-1-sulfonic acid methylamide]
chromatographic logD [1]: 2.76 | binding to HSA (qualitative) (HSA [4]): binds to HSA | binding to HSA (qualitative) (HSA [4]; listed as dansyl methylamide (25)): bound to HSA | Δλ, shift of emission maximum λem without HSA vs with HSA (HSA [2]; [5]): 80 nm | change in fluorescence intensity with increasing HSA concentration (HSA [2]; dansyl derivatives 100 μM, 330-560 nm): smallest fluorescence increase

Compound: CN(C)c1cccc2c(S(=O)(=O)NCCCCCCCCCC(=O)O)cccc12 [dansyl C10 (23), 10-(5-Dimethylaminonaphthalene-1-sulfonylamino)decanoic acid]
chromatographic logD [1]: 2.74 | Δλ, shift of emission maximum λem without HSA vs with HSA (HSA [2]; [5]): 68 nm

Compound: CN(C)c1cccc2c(S(=O)(=O)NCC(=O)O)cccc12 [dansyl C2 (19), (5-Dimethylaminonaphthalene-1-sulfonylamino)ethanoic acid]
chromatographic logD [1]: 1.02 | binding to HSA (qualitative) (HSA [4]): bound to HSA | Δλ, shift of emission maximum λem without HSA vs with HSA (HSA [2]; [5]): 94 nm

Compound: O=C(O)CCCNc1ccc([N+](=O)[O-])c2nonc12 [NBD C4 (13), 4-(7-Nitrobenzo[1,2,5]oxadiazol-4-ylamino)butanoic acid]
log D7.4 [1]: −0.46 | Δλ, shift of emission maximum λem without HSA vs with HSA (HSA [2]; [7]): 2 nm | change in fluorescence intensity with increasing HSA concentration (HSA [2]; [8]): no changes in fluorescence intensity

Compound: O=C(O)CCCCCNc1ccc([N+](=O)[O-])c2nonc12 [NBD C6 (14), 6-(7-Nitrobenzo[1,2,5]oxadiazol-4-ylamino)hexanoic acid]
chromatographic logD [1]: 0.53 | Δλ, shift of emission maximum λem without HSA vs with HSA (HSA [2]; [7]): 0 nm | change in fluorescence intensity with increasing HSA concentration (HSA [2]; [8]): no changes in fluorescence intensity

Compound: O=C(O)CCCCCCCNc1ccc([N+](=O)[O-])c2nonc12 [NBD C8 (15), 8-(7-Nitrobenzo[1,2,5]oxadiazol-4-ylamino)octanoic acid]
relative binding affinity of the NBD dye for HSA (HSA [3]): lowest affinity | chromatographic logD [1]: 1.29 | Δλ, shift of emission maximum λem without HSA vs with HSA (HSA [2]; [7]): 10 nm | change in fluorescence intensity with increasing HSA concentration (HSA [2]; [8]): greatest increase in fluorescence intensity

Compound: CCCCCC(=O)O [FA C6, caproic acid]
displacement of NBD C8 (15) bound to HSA (HSA [3]; [6]): − | displacement of NBD C8 (15) from HSA (HSA [3]; [6]): did not displace | displacement of NBD C10 (16) bound to HSA (HSA [3]; [6]): − | displacement of NBD C10 (16) from HSA (HSA [3]; [6]): not displaced | displacement of NBD C12 (17) bound to HSA (HSA [3]; [6]): −

Compound: CN(C)c1cccc2c(S(=O)(=O)NCCCCCCCCCCCC(=O)O)cccc12 [dansyl C12 (24), 12-(5-Dimethylaminonaphthalene-1-sulfonylamino)dodecanoic acid]
chromatographic logD [1]: 3.49 | log D7.4 [1]: 3.49 | Δλ, shift of emission maximum λem without HSA vs with HSA (HSA [2]; [5]): 66 nm

Compound: CN(C)c1cccc2c(S(=O)(=O)NCCCCCC(=O)O)cccc12 [dansyl C6 (21), 6-(5-Dimethylaminonaphthalene-1-sulfonylamino)hexanoic acid]
chromatographic logD [1]: 1.56 | Δλ, shift of emission maximum λem without HSA vs with HSA (HSA [2]; [5]): 82 nm

From patent US20150285812A1, “Fluorescence-Labelled Fatty Acids and Uses Thereof” (SANOFI, priority 2012, published 2015)
